Experimental data from patent US8242082B2, “Antibacterial peptide” (Seikagaku Corporation, priority 2004, dated 2012).
Entries after “also recorded” stand apart in the source; their conditions may differ. No end group written: not given here.

Columns and labels:
[1] = test system: E. coli, S. aur, MSSA, and MRSA; experiment: Determination of antibacterial (bacteriocidal) effect, Alamar Blue; format: cell-based, Escherichia coli; Staphylococcus aureus; settings: for antibacterial effect: gram-negative and gram-positive bacteria, 37° C. for six hours, absorbance difference with Alamar Blue; for antibacterial effect, comparison among test substances: relative ranking from the figures
Experimental: Each of E. coli, S. aur, MSSA, and MRSA was subjected to shaking culture overnight at 37° C. by use of a Muller-Hinton medium (product of DIFCO), and the cells precipitated through centrifugation were separated and washed with a Phenol Red-free RPMI 1640 medium. Strains of E. coli, S. aur, MSSA, and MRSA were prepared so that the cell concentrations were adjusted to 1×10^8 CFU/mL, 2×10^8 CFU/mL, 2×10^8 CFU/mL, and 2×10^8 CFU/mL, respectively, the concentrations being determined from the corresponding absorbance values at 650 nm by means of a spectrophotometer.
By use of a 96-well plate, each cell suspension (1×10^6 CFU/mL) (100 μL), a test substance (10 μL), an RPMI 1640 medium (70 μL), and an Alamar Blue reagent (product of BIOSOURCE) (20 μL) were admixed. In the presence of Alamar Blue, pink fluorescence attributed to live cells is observed, whereas the admixture remains blue when the cells are dead.
Each admixture was incubated at a constant temperature of 37° C. for six hours, and the difference between absorbance at 560 nm and that at 595 nm was obtained.
The procedure of the aforementioned <2-1> was repeated, except that 1-18, 1-18m, and 1-18 m2 were tested and the difference between absorbance at 550 nm and that at 590 nm was measured, to thereby determine the antibacterial effect of the test substances with respect to each of E. coli, S. aur, MSSA, and MRSA. […] In FIG. 6, the test results of 1-18 are represented by “CAP11,” and the black dots, white dots, black squares, and white squares denote the antibacterial effects to E. coli, S. aur, MSSA, and MRSA, respectively (X-axis: test substance concentration, Y-axis: difference between absorbance at 550 nm and that at 590 nm).

[2] = test system: binding between LPS and RAW 246.7 cells; experiment: Determination of LPS-cell-binding inhibitory effect (Alexa 488-labeled LPS, FACS); format: cell-based; settings: for LPS-cell-binding inhibitory effect: RAW 246.7 cells, Alexa 488-labeled LPS 100 ng/mL; for LPS-cell-binding inhibitory effect, comparison among test substances: relative ranking from the figures
Experimental: RAW 246.7 cells (macrophage cell strain) were cultured by use of an RPMI 1640 medium containing 10% FCS and collected. The collected cells were diluted with the same medium so that the cell concentration was adjusted to 5×10^5/mL. To the diluted liquid (500 μL), a test substance (5 μL) was added, and the mixture was subjected to shaking culture at 37° C. for 10 minutes. Subsequently, LPS that had been labeled with Alexa 488 (final concentration: 100 ng/mL) was added to the culture, and the mixture was subjected to shaking culture at 37° C. for 15 minutes. The collected cells were washed with PBS (3 mL×2) and suspended again in PBS (300 μL). Binding of Alexa 488-labeled LPS was measured through FACS. Control samples (a sample containing no labeled LPS (background) and an antibacterial-peptide-free sample (maximum LPS binding degree) were treated similarly, and the degree of the inhibitory effect on binding between LPS and RAW 246.7 cells was determined on the basis of comparison with control samples.
In a manner similar to that of the aforementioned <2-2>, the LPS-cell-binding inhibitory effect of the same test substances was determined. […] In FIG. 7, the test results of 1-18, 1-18m, and 1-18 m2 are represented by white dots, black dots, and black squares, respectively (X-axis: test substance concentration, Y-axis: percent binding of LPS to cells).

[3] = test system: Candida albicans (CA53133 strain); experiment: Determination of antibacterial (bacteriocidal) effect (antifungal effect) to fungi, Alamar Blue; format: cell-based; settings: for antibacterial (bacteriocidal) effect to fungi: Candida albicans, 35° C. for fourteen hours
Experimental: Candida albicans (CA53133 strain) was grown in Sabouraud dextrose agar. Colonies formed in the agar were collected and suspended to serum-free and Phenol Red-free RPM11640 liquid medium (SIGMA). The concentration of cells in the medium was determined from the corresponding absorbance value at 550 nm by means of spectrophotometer, and the concentration is adjusted to 0.5−2.5×10^4 CFU/mL. By use of a 96-well plate, each cell suspension (0.5-2.5×10^4 CFU/mL) (20 μL), a test substance (CAP11, 1-18 or 1-18 m2) (10 μL), an RPMI 1640 liquid medium (150 μL), and an Alamar Blue reagent (product of BIOSOURCE) (20 μL) were admixed. Each admixture was incubated at a constant temperature of 35° C. for fourteen hours, and the difference between absorbance at 550 nm and that at 595 nm was obtained.

| Substance | antibacterial effect [1] | LPS-cell-binding inhibitory effect [2] | LPS-cell-binding inhibitory effect, comparison among test substances [2] | antibacterial (bacteriocidal) effect to fungi [3] | antibacterial effect, comparison among test substances [1] | antifungal effect, comparison among test substances ([3]; relative ranking from FIG. 8) |
| --- | --- | --- | --- | --- | --- | --- |
| 9-26: partial peptide, 9th to 26th amino acid residues of the CAP11 monomer | exhibited an antibacterial effect | an LPS-cell-binding inhibitory effect |  |  |  |  |
| monomer: CAP11 monomer having 43 amino acid units and no cysteine disulfide bond (GLRKKFRKTRKRIGKLGRKIGKTGRKVWKAWREYGQIPYPCRI; A partial peptide of CAP11) [reference compound] | exhibited an antibacterial effect | an LPS-cell-binding inhibitory effect | No significant difference | exhibit an antibacterial (bacteriocidal) effect to fungi |  |  |
| GLRKLFRKLLKLIQKLLR [1-18m] | exhibit an antibacterial (bacteriocidal) effect | exhibit an LPS-cell-binding inhibitory effect |  |  |  |  |
| 16-33: partial peptide, 16th to 33th amino acid residues of the CAP11 monomer (LGRKIGKTGRKVWKAWRE; A partial peptide of CAP11) | exhibited an antibacterial effect | an LPS-cell-binding inhibitory effect |  |  |  |  |
| GLRKKFRKTRKRIQKLGR [1-18] | exhibited an antibacterial effect; also recorded: exhibit an antibacterial (bacteriocidal) effect | exhibit an LPS-cell-binding inhibitory effect | most potent; also recorded: then 1-18 | exhibit an antibacterial (bacteriocidal) effect to fungi | most potent antibacterial effect; also recorded: then 1-18 |  |
| KLRKLFRKLLKLIRKLLR [1-18 m2, synthesized and substituted form of CAP11 (1-18)] | exhibit an antibacterial (bacteriocidal) effect | exhibit an LPS-cell-binding inhibitory effect | strongest effect | exhibit an antibacterial (bacteriocidal) effect to fungi | strongest antibacterial effect | strongest antifungal effect |
